Source: patent US11547652B2, “Combination products and cosmetic compositions for controlling skin disorders and skin aging that affect keratinocytes and/or fibroblasts and the dermis” (NUTRICOS Technologies, priority 2014, dated 2023)

Assays:
[1] = test system: NHEK cells (Normal Human Epidermal Keratinocytes); assay: Hyaluronic acid production by NHEK cells (ELISA on supernatant); format: cell-based; details: 72 hours of cultivation, hyaluronic acid 40 to 6000 ng/ml, glucosamine sulfate 0.25 to 25 μg/ml, FIG. 1
Procedure: Normal human epidermal keratinocytes were cultured at 37° C. under 5% CO2 in a medium keratinocyte-SFM culture, supplemented with epidermal growth factor (EGF; 0.25 ng/ml), a pituitary extract (25 μg/ml) and an antibiotic (gentamicin 25 μg/ml) in 96-well plates for 24 h without stimulation. Glucosamine and/or hyaluronic acid are then added to the cultivation medium alone or in combination at concentrations of 40 to 6000 ng/ml hyaluronic acid and 0.25 to 25 μg/ml to glucosamine sulfate. After 72 hours of cultivation under these conditions, the supernatant was collected to quantify the hyaluronic acid produced by the cells using an ELISA Duoset Hyaluronan kit marketed by the company R & D System (DY3614 reference).

[2] = test system: NHDF cells (Normal Human Dermal Fibroblasts); assay: Hyaluronic acid production by NHDF cells (ELISA on supernatant); format: cell-based; details: 72 hours, glucosamine 0.1 to 100 μg/ml, hyaluronic acid 40 to 6000 ng/ml, source of collagen and hyaluronic acid 4 to 4000 ng/ml, FIG. 2
Procedure: Normal human dermal fibroblasts (NHDF) were cultured at 37° C. under 5% CO2 in a DMEM culture medium supplemented with glutamine (2 mM); calf serum (1%), penicillin (50 U/ml) and streptomycin ([…]). Glucosamine (0.1 to 100 μg/ml) and/or hyaluronic acid (from 40 to 6000 ng/ml) and/or a source of collagen and hyaluronic acid (in a ratio of between 0.07% and 15%) at concentrations ranging from 4 to 4000 ng/ml were then added to the cultivation medium alone or in combination. After 72 hours of cultivation under these conditions, the supernatant was collected to quantify the hyaluronic acid produced by the cells using an ELISA Duoset Hyaluronan kit marketed by the company R & D System (DY3614 reference).

N[C@H]1C(O)O[C@H](CO)[C@@H](O)[C@@H]1O.O=S(=O)(O)O (stereo partly shown) [glucosamine sulfate]
hyaluronic acid production by human keratinocytes in vitro [1]: induction of hyaluronic acid production | hyaluronic acid production by human fibroblasts in vitro [2]: lack of stimulation

hyaluronic acid
hyaluronic acid production by human keratinocytes in vitro [1]: does not stimulate the synthesis of hyaluronic acid | hyaluronic acid production by human fibroblasts in vitro [2]: did not stimulate the synthesis of hyaluronic acid
